Measured values: patent US20220177508A1, “C10-Cyclic Substituted 13-Membered Macrolides and Uses Thereof” (Zikani Therapeutics, Inc., priority 2018, published 2022)
In brackets after ≈: the same amount, converted by molar mass.

Experiments:
Assay type in all cases: cell-based
P. aeruginosa MP-3 = assay: Broth dilution MIC determination (CLSI), P. aeruginosa MP-3; conditions: Pseudomonas aeruginosa, MP3; strain MP-3, broth dilution
A. baumannii MP-15 = assay: Broth dilution MIC determination (CLSI), A. baumannii MP-15; conditions: Acinetobacter baumannii, MP15; strain MP-15, broth dilution; read-out: MIC A. baumanii MP-15
E. coli MP-4 = assay: Broth dilution MIC determination (CLSI), E. coli MP-4; conditions: Escherichia coli, MP4; strain MP-4, broth dilution; read-out: MIC E. coli MP-4
S. aureus MP-12 = assay: Broth dilution MIC determination (CLSI), S. aureus MP-12; conditions: Staphylococcus aureus, MP12; strain MP-12, broth dilution
K. pneumoniae MP-546 = assay: Broth dilution MIC determination (CLSI), K. pneumoniae MP-546; conditions: Klebsiella pneumoniae, MP546; strain MP-546, broth dilution

MIC (P. aeruginosa MP-3) [mg/L]	MIC (A. baumannii MP-15) [mg/L]	MIC (E. coli MP-4) [mg/L]	MIC (S. aureus MP-12) [mg/L]	MIC (K. pneumoniae MP-546) [mg/L]	Compound
> 32	> 32	> 32	> 32	> 32	C=CCN1CC=C([C@H]2[C@@H](C)OC(=O)C(C)(C)C(=O)[C@H](C)[C@@H](O[C@@H]3O[C@H](C)C[C@H](N(C)C)[C@H]3O)[C@](C)(OC)C[C@@H](C)CN2C)CC1 [Compound 1, (2R,3S,6R,8R,9R,10R)-3-(1-Allyl-1,2,3,6-tetrahydropyridin-4-yl)-9-(((2S,3R,4S,6R)-4-(dimethylamino)-3-hydroxy-6-methyltetrahydro-2H-pyran-2-yl)oxy)-8-methoxy-2,4,6,8,10,12,12-heptamethyl-1-oxa-4-azacyclotridecane-11,13-dione]
> 32	> 32	> 32	> 32	> 32	CCC[N+]1(C)CC=C([C@H]2[C@@H](C)OC(=O)C(C)(C)C(=O)[C@H](C)[C@@H](O[C@@H]3O[C@H](C)C[C@H](N(C)C)[C@H]3O)[C@](C)(OC)C[C@@H](C)CN2C)CC1 (stereo partly drawn) [Compound 4, 4-((2R,3S,6R,8R,9R,10R)-9-(((2S,3R,4S,6R)-4-(dimethylamino)-3-hydroxy-6-methyltetrahydro-2H-pyran-2-yl)oxy)-8-methoxy-2,4,6,8,10,12,12-heptamethyl-11,13-dioxo-1-oxa-4-azacyclotridecan-3-yl)-1-methyl-1-propyl-1,2,3,6-tetrahydropyridin-1-ium]
> 32	> 32	< 4	4 to 32 (≈ 6.54 to 52.3 µM)	< 4	CO[C@]1(C)C[C@@H](C)CN[C@H](C2CCN(C(C)C)CC2)COC(=O)C(C)(C)C(=O)[C@H](C)[C@H]1O[C@@H]1O[C@H](C)C[C@H](N(C)C)[C@H]1O [Compound 7, (3R,6R,8R,9R,10R)-9-(((2S,3R,4S,6R)-4-(Dimethylamino)-3-hydroxy-6-methyltetrahydro-2H-pyran-2-yl)oxy)-3-(1-isopropylpiperidin-4-yl)-8-methoxy-6,8,10,12,12-pentamethyl-1-oxa-4-azacyclotridecane-11,13-dione]
> 32	> 32	< 4	> 32	4 to 32 (≈ 6.85 to 54.8 µM)	CO[C@]1(C)C[C@@H](C)CN(C)[C@@H]([C@H]2CNC(=O)C2)COC(=O)C(C)(C)C(=O)[C@H](C)[C@H]1O[C@@H]1O[C@H](C)C[C@H](N(C)C)[C@H]1O [Compound 8, (3S,6R,8R,9R,10R)-9-(((2S,3R,4S,6R)-4-(dimethylamino)-3-hydroxy-6-methyltetrahydro-2H-pyran-2-yl)oxy)-8-methoxy-4,6,8,10,12,12-hexamethyl-3-((R)-5-oxopyrrolidin-3-yl)-1-oxa-4-azacyclotridecane-11,13-dione]
> 32	> 32	4 to 32 (≈ 5.76 to 46 µM)	> 32	4 to 32 (≈ 5.76 to 46 µM)	CO[C@]1(C)C[C@@H](C)CN(C)[C@H](C2CCN(C(=O)CN3CCCC3)CC2)COC(=O)C(C)(C)C(=O)[C@H](C)[C@H]1O[C@@H]1O[C@H](C)C[C@H](N(C)C)[C@H]1O [Compound 9, (3R,6R,8R,9R,10R)-9-(((2S,3R,4S,6R)-4-(dimethylamino)-3-hydroxy-6-methyltetrahydro-2H-pyran-2-yl)oxy)-8-methoxy-4,6,8,10,12,12-hexamethyl-3-(1-(2-(pyrrolidin-1-yl)acetyl)piperidin-4-yl)-1-oxa-4-azacyclotridecane-11,13-dione]
> 32	4 to 32 (≈ 5.59 to 44.8 µM)	< 4	4 to 32 (≈ 5.59 to 44.8 µM)	4 to 32 (≈ 5.59 to 44.8 µM)	CO[C@]1(C)C[C@@H](C)CN(C)[C@H](C2CN(C(=O)CN3Cc4ccccc4C3)C2)COC(=O)C(C)(C)C(=O)[C@H](C)[C@H]1O[C@@H]1O[C@H](C)C[C@H](N(C)C)[C@H]1O [Compound 10, (3R,6R,8R,9R,10R)-9-(((2S,3R,4S,6R)-4-(dimethylamino)-3-hydroxy-6-methyltetrahydro-2H-pyran-2-yl)oxy)-3-(1-(2-(isoindolin-2-yl)acetyl)azetidin-3-yl)-8-methoxy-4,6,8,10,12,12-hexamethyl-1-oxa-4-azacyclotridecane-11,13-dione]
> 32	> 32	< 4	4 to 32 (≈ 6.54 to 52.3 µM)	< 4	CO[C@]1(C)C[C@@H](C)CN(C)[C@H]([C@H]2CCN(C(C)C)C2)COC(=O)C(C)(C)C(=O)[C@H](C)[C@H]1O[C@@H]1O[C@H](C)C[C@H](N(C)C)[C@H]1O [Compound 11, (3R,6R,8R,9R,10R)-9-(((2S,3R,4S,6R)-4-(Dimethylamino)-3-hydroxy-6-methyltetrahydro-2H-pyran-2-yl)oxy)-3-((S)-1-isopropylpyrrolidin-3-yl)-8-methoxy-4,6,8,10,12,12-hexamethyl-1-oxa-4-azacyclotridecane-11,13-dione]
> 32	> 32	< 4	4 to 32 (≈ 6.25 to 50 µM)	< 4	CO[C@]1(C)C[C@@H](C)CN(C)[C@@H](C2CCN(CC(C)C)CC2)COC(=O)C(C)(C)C(=O)[C@H](C)[C@H]1O[C@@H]1O[C@H](C)C[C@H](N(C)C)[C@H]1O [Compound 12, (3S,6R,8R,9R,10R)-9-(((2S,3R,4S,6R)-4-(dimethylamino)-3-hydroxy-6-methyltetrahydro-2H-pyran-2-yl)oxy)-3-(1-isobutylpiperidin-4-yl)-8-methoxy-4,6,8,10,12,12-hexamethyl-1-oxa-4-azacyclotridecane-11,13-dione]
> 32	> 32	4 to 32 (≈ 6.25 to 50 µM)	4 to 32 (≈ 6.25 to 50 µM)	4 to 32 (≈ 6.25 to 50 µM)	CCC(=O)N1CCC([C@@H]2COC(=O)C(C)(C)C(=O)[C@H](C)[C@@H](O[C@@H]3O[C@H](C)C[C@H](N(C)C)[C@H]3O)[C@](C)(OC)C[C@@H](C)CN2C)CC1 [Compound 13, (3R,6R,8R,9R,10R)-9-(((2S,3R,4S,6R)-4-(dimethylamino)-3-hydroxy-6-methyltetrahydro-2H-pyran-2-yl)oxy)-8-methoxy-4,6,8,10,12,12-hexamethyl-3-(1-propionylpiperidin-4-yl)-1-oxa-4-azacyclotridecane-11,13-dione]
> 32	> 32	< 4	> 32	> 32	CO[C@]1(C)C[C@@H](C)CN(C)[C@H](C2CN(C(=O)CN3CCC3)C2)COC(=O)C(C)(C)C(=O)[C@H](C)[C@H]1O[C@@H]1O[C@H](C)C[C@H](N(C)C)[C@H]1O [Compound 14]
> 32	4 to 32 (≈ 6.41 to 51.3 µM)	< 4	4 to 32 (≈ 6.41 to 51.3 µM)	< 4	CO[C@]1(C)C[C@@H](C)CN(C)[C@H](C2CN(CC3CCC3)C2)COC(=O)C(C)(C)C(=O)[C@H](C)[C@H]1O[C@@H]1O[C@H](C)C[C@H](N(C)C)[C@H]1O [Compound 17, (3R,6R,8R,9R,10R)-3-(1-(cyclobutylmethyl)azetidin-3-yl)-9-(((2S,3R,4S,6R)-4-(dimethylamino)-3-hydroxy-6-methyltetrahydro-2H-pyran-2-yl)oxy)-8-methoxy-4,6,8,10,12,12-hexamethyl-1-oxa-4-azacyclotridecane-11,13-dione]
> 32	> 32	> 32	> 32	> 32	CO[C@]1(C)C[C@@H](C)CN(C)[C@H](c2ccncc2)COC(=O)C(C)(C)C(=O)[C@H](C)[C@H]1O[C@@H]1O[C@H](C)C[C@H](N(C)C)[C@H]1O [Compound 19, (3R,6R,8R,9R,10R)-9-(((2S,3R,4S,6R)-4-(dimethylamino)-3-hydroxy-6-methyltetrahydro-2H-pyran-2-yl)oxy)-8-methoxy-4,6,8,10,12,12-hexamethyl-3-(pyridin-4-yl)-1-oxa-4-azacyclotridecane-11,13-dione]
> 32	> 32	< 4	4 to 32 (≈ 5.69 to 45.5 µM)	4 to 32 (≈ 5.69 to 45.5 µM)	CO[C@]1(C)C[C@@H](C)CN(C)[C@H](C2CN(CC(=O)NCc3ccccc3)C2)COC(=O)C(C)(C)C(=O)[C@H](C)[C@H]1O[C@@H]1O[C@H](C)C[C@H](N(C)C)[C@H]1O [Compound 20, N-benzyl-2-(3-((3R,6R,8R,9R,10R)-9-(((2S,3R,4S,6R)-4-(dimethylamino)-3-hydroxy-6-methyltetrahydro-2H-pyran-2-yl)oxy)-8-methoxy-4,6,8,10,12,12-hexamethyl-11,13-dioxo-1-oxa-4-azacyclotridecan-3-yl)azetidin-1-yl)acetamide]

Compound	MIC (P. aeruginosa MP-3) [mg/L]	MIC (A. baumannii MP-15) [mg/L]	MIC (E. coli MP-4) [mg/L]	MIC (S. aureus MP-12) [mg/L]	MIC (K. pneumoniae MP-546) [mg/L]
CO[C@]1(C)C[C@@H](C)CN(C)[C@H](C2CC3CCC(C2)N3C(=O)CN(C)C)COC(=O)C(C)(C)C(=O)[C@H](C)[C@H]1O[C@@H]1O[C@H](C)C[C@H](N(C)C)[C@H]1O (stereo partly drawn) [Compound 6, (3R,6R,8R,9R,10R)-9-(((2S,3R,4S,6R)-4-(dimethylamino)-3-hydroxy-6-methyltetrahydro-2H-pyran-2-yl)oxy)-3-(8-(dimethylglycyl)-8-azabicyclo[3.2.1]octan-3-yl)-8-methoxy-4,6,8,10,12,12-hexamethyl-1-oxa-4-azacyclotridecane-11,13-dione]	> 32	> 32	4 to 32 (≈ 5.76 to 46 µM)	> 32	4 to 32 (≈ 5.76 to 46 µM)
CCN1C2CCC1CC([C@@H]1COC(=O)C(C)(C)C(=O)[C@H](C)[C@@H](O[C@@H]3O[C@H](C)C[C@H](N(C)C)[C@H]3O)[C@](C)(OC)C[C@@H](C)CN1C)C2 (stereo partly drawn) [Compound 15, (3R,6R,8R,9R,10R)-9-(((2S,3R,4S,6R)-4-(dimethylamino)-3-hydroxy-6-methyltetrahydro-2H-pyran-2-yl)oxy)-3-(8-ethyl-8-azabicyclo[3.2.1]octan-3-yl)-8-methoxy-4,6,8,10,12,12-hexamethyl-1-oxa-4-azacyclotridecane-11,13-dione]	> 32	> 32	< 4	4 to 32 (≈ 6.27 to 50.2 µM)	4 to 32 (≈ 6.27 to 50.2 µM)
